Test results: patent US20210169078A1, “AGENT FOR SUPPRESSING MICROBIAL GROWTH, METHOD FOR PREVENTING MICROBIAL CONTAMINATION, AND BEVERAGE” (priority 2018, published 2021)
≈ marks a conversion by molar mass, not a printed value.

How the values were obtained:
Format in all cases: cell-based
[1] = system: Thermo-Acidophilic Bacilli (Alicyclobacillus acidoterrestris ATCC 49025); assay: Agar plate dilution MIC test; details: ATCC49025, 120 h, YSG agar medium, 50 ± 1 °C, 5 days, aerobic
[2] = system: Bacillus cereus (Bacillus cereus IFO 13494); assay: Agar plate dilution MIC test; details: IFO13494, Mueller Hinton Agar, 37 ± 1 °C, 18 to 20 hours, aerobic
[3] = system: Bacillus welchii (Clostridium perfringens JCM 1290); assay: organism not typed; details: 24 h
[4] = system: Clostridium difficile (spores) (Clostridium difficile ATCC 9689); assay: Agar plate dilution MIC test; details: Clostridioides difficile, ATCC9689; Clostridium difficile ATCC 9689 (spores); taurocholic acid-containing BHIA medium, 37 ± 1 °C, 18 to 20 hours, anaerobic
[5] = system: Staphylococcus aureus (Staphylococcus aureus subsp. aureus NBRC 12732); assay: Agar plate dilution MIC test; details: NBRC12732, Mueller Hinton Agar, 37 ± 1 °C, 18 to 20 hours, aerobic

Structure (SMILES): COc1cc(O)c(CC=C(C)C)c2c1C(=O)CC(c1ccc(O)cc1)O2 (centres unmarked) [Isoxanthohumol]
- MIC [1]: 25 µg/mL (≈ 70.5 µM)
- MIC [2]: 50 µg/mL (≈ 141 µM)
- MIC [3]: 50 µg/mL (≈ 141 µM)
- MIC [4]: 50 µg/mL (≈ 141 µM)
- MIC [5]: 50 µg/mL (≈ 141 µM)
